# Patent publication US20030017965A1, “Methods for treating certain diseases using naaladase inhibitors” (priority 1998, published 2003)
# Experiments:
# [1] = test system: middle cerebral artery occlusion (MCAO) in rats; experiment: Neuroprotection following middle cerebral artery occlusion (MCAO) in rats; assay type: in vivo
# From the text: The effect of TGF-β neutralizing antibodies on the neuroprotection afforded by 2-(phosphonomethyl)-pentanedioic acid following middle cerebral artery occlusion (MCAO) in rats was also studied to give a more relevant in vivo model of stroke.
# Thus, it was appreciated that the regulation of TGF-βs may have implications, not only in its utility in stroke, but also in other neurological and psychiatric diseases. In addition, this mechanism may have implications in myelination, prostate cancer, inflammation, diabetes, and angiogenesis.
# [2] = test system: mice; experiment: In vivo toxicity study in mice; conditions: for Survival Rate After 5 days (%): injected
# From the text: The in vivo toxicological effect of NAALADase inhibition has been examined in mice. […] Representative disclosure may be found in U.S. Pat. Nos. 5,672,592, 5,795,877, 5,863,536 and 5,880,112, and allowed U.S. patent applications Ser. Nos. 08/825,997, 08/833,628, 08/835,572 and 08/842,360, for which the issue fees have been paid, the entire contents of which patents and applications are herein incorporated by reference.
# The mice were observed two times per day for 5 consecutive days.
# [3] = test system: TGF-β1; experiment: TGF-β1 levels by microdialysis in MCAO rats; assay type: in vivo; conditions: FIG. 6
# [4] = test system: ischemic cultures; experiment: Neuroprotection in ischemic cell culture model of stroke with neutralizing antibodies; assay type: cell-based; conditions: for neuroprotective effect in presence of FGF antibody: FGF neutralizing antibody added; for neuroprotective effect in presence of TGF-β neutralizing antibodies: TGF-β neutralizing antibodies added
# Protocol: (§1) The compounds of the invention were used to produce a neuroprotective effect in both in vitro and in vivo cell culture models of stroke.
# TGF-β neutralizing antibodies were then added to determine if the neuroprotective effect would be blocked. The neuroprotective effect of 2-(phosphonomethyl)-pentanedioic acid was blocked by TGF-βs neutralizing bodies in this cell culture model. However, when other growth factor antibodies, such as FGF antibody, were added, the neuroprotective effect of 2-(phosphonomethyl)-pentanedioic acid was not reversed in culture.
# [5] = test system: TGF-β1; experiment: TGF-β1 concentration in ischemic cell cultures; assay type: cell-based; conditions: added to ischemic cultures (20-minute ischemia)
# From the text: as §1
# [6] = test system: TGF-β2; experiment: TGF-β2 concentration in ischemic cell cultures; assay type: cell-based; conditions: added to ischemic cultures (20-minute ischemia)
# From the text: as §1
# [7] = target: T1, Myeloperoxidase (MPO) isolated from human polymorphonuclear leukocytes (Homo sapiens, UniProt P05164); conditions: guaiacol substrate, reference data; cited from earlier work
# T1 construct: Myeloperoxidase (MPO) isolated from human polymorphonuclear leukocytes; purchased Calbiochem 475911; host or cells: human polymorphonuclear leukocytes (natural source)
# [8] = listed as 2-(phosphonomethyl)-pentanedioic acid
# T1 sequence (P05164 279-745 limits assumed): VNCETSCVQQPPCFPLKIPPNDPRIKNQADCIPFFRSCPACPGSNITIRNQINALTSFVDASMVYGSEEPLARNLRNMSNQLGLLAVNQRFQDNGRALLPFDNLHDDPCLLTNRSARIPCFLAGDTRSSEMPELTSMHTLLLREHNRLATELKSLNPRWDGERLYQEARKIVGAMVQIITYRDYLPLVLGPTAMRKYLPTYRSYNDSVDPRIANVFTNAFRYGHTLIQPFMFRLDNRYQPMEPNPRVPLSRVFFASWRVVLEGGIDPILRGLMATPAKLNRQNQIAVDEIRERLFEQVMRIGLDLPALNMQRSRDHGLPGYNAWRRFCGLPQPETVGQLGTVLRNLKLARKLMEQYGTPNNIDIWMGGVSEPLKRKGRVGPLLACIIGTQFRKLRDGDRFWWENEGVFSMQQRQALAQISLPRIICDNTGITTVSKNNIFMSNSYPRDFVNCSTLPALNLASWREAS
# T1 sequence (P05164 165-273 limits assumed): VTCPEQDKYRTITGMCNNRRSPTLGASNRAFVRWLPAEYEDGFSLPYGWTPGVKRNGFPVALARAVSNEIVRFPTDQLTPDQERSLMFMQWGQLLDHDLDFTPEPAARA
SMILES,neuroprotection ([1]; MCAO rats),"neuroprotective effect after TGF-β neutralizing antibodies ([1]; MCAO rats pre-treated with TGF-β neutralizing antibodies, FIG. 5)",Survival Rate After 5 days (%) ([2]; dose 1 mg/kg),Survival Rate After 5 days (%) ([2]; dose 5 mg/kg),Survival Rate After 5 days (%) ([2]; dose 10 mg/kg),Survival Rate After 5 days (%) ([2]; dose 30 mg/kg),Survival Rate After 5 days (%) ([2]; dose 100 mg/kg),Survival Rate After 5 days (%) ([2]; dose 300 mg/kg),Survival Rate After 5 days (%) ([2]; dose 500 mg/kg),toxicological effect in vivo ([2]; observed for 5 days),TGF-β1 during occlusion and reperfusion [3],"neuroprotective effect in presence of FGF antibody [4, 8]",neuroprotective effect in presence of FGF antibody ([4]; listed as compound 3),"neuroprotective effect in presence of TGF-β neutralizing antibodies [4, 8]",neuroprotective effect in presence of TGF-β neutralizing antibodies ([4]; listed as compound 3),level of TGF-β1 [5],level of TGF-β2 [6],IC50 [7] [nM]
"O=C(O)CCC(CP(=O)(O)O)C(=O)O (stereo not drawn) [Compound 3, 2-(phosphonomethyl)-pentanedioic acid]",provided neuroprotection,significantly attenuated,100,100,100,100,100,100,66.7,non-toxic,significant rise,not reversed,non-reversal,blocked,reversal,increased significantly,increased significantly,
"CC(Cc1ccc(O)c(O)c1)C(C)Cc1ccc(O)c(O)c1 (stereo not drawn) [NDGA (Nordihydroguaretic Acid), Nordihydroguaretic Acid]",,,,,,,,,,,,,,,,,,1000
